This is an account of results in US5422349A, “Morpholino-oxazinyl-terminated alkylamino ethynyl alanine amino diol compounds for treatment of hypertension” (G. D. Seale & Co., priority 1992, dated 1995).

One assay addresses T1, human renin (Homo sapiens, UniProt P00797).
T1 construct: purchased National Institute for Biological Standards, London
T1 sequence (P00797 67-406): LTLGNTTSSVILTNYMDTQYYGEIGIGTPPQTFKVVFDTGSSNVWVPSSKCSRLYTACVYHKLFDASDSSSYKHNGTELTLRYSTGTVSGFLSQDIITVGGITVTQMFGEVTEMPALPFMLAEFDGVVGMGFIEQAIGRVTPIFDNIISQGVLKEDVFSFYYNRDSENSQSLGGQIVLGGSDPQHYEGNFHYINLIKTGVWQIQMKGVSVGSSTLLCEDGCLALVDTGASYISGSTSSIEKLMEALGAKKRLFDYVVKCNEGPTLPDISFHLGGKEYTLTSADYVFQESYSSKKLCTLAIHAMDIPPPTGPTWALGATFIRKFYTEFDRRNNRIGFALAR
The experiment in a line: Human Renin Inhibition in vitro (angiotensin I produced, by radioimmunoassay). The note with it: pH 7.4, 37° C., two hours, human plasma. It counts as biochemical. As for the experimental part:
Compounds of Formula I were evaluated as inhibitors of human renin in an in Vitro assay, as follows: This human renin inhibition test has been previously described in detail [Papaioannou et al., Clinical and Experimental Hypertension, A7(9), 1243-1257 (1985)]. Human renin was obtained from the National Institute for Biological Standards, London. An incubation mixture was prepared containing the following components: in a total volume of 0.25 mL: 100 mM Tris-acetate buffer at pH 7.4, 25×10^-6 Goldblatt units of renin, 0.05 mL of plasma from human volunteers taking oral contraceptives, 6.0 mM Na-EDTA, 2.4 mM phenylmethyl sulfonyl fluoride, 1.5 mM 8-hydroxyquinoline, 0.4 mg/mL bovine serum albumin (BSA), and 0.024 mg/mL neomycin sulfate. This mixture was incubated for two hours at 37° C. in the presence or absence of renin inhibitors. The produced angiotensin I was determined by radioimmunoassay (New England Nuclear kit). Test compounds to be assayed were dissolved in DMSO and diluted with 100 mM Tris-acetate buffer at pH 7.4 containing 0.5% BSA to the appropriate concentration. The final concentration of organic solvent in the reaction mixture was less than 1%. Control incubations at 37° C. were used to correct for effects of organic solvent on renin activity.

In the next assay the test system is hog renin. The following applies: after injection of hog renin into nephrectomized rats; cited from earlier work.
Another assay relates to cathepsin D. The note with it: cited from earlier work.
A further assay has as its system pepsin. The note with it: cited from earlier work.
A further assay deals with renin. The following applies: cited from earlier work.

The structures appear in SMILES notation. pIC50: −log10 of the molar value. Non-standard residues stand in square brackets, D forms with d. Residues, ends and D or L forms follow the SMILES beside them. *: point of attachment. Sta = CC(C)C[C@H](N)[C@@H](O)CC(=O)O; Isovaleryl = CC(C)CC(=O)*

Broadly, the pIC50 is the negative decadic logarithm of the IC50, by convention in mol/L. High values mean a small IC50, low ones a large IC50. At human renin, `C#CC[C@H](NC(=O)[C@@H](CC(=O)N(C)CCN1CCOCC1)Cc1ccccc1)C(=O)N[C@@H](CC1CCCCC1)[C@@H](O)[C@@H](O)CC(C)C` [Example 1, N^1-[1R*-[[[1S,1R*-(cyclohexylmethyl)-2S*,3R* -dihydroxy-5-methylhexyl]amino]carbonyl]-3-butynyl]-N^4-methyl-N^4-[2-(4-morpholinyl)ethyl]-2S*-(phenylmethyl)butanediamide] had a pIC50 of 9.00.
Turning to `CC(C)CC(=O)N[C@H](C(=O)N[C@H](C(=O)N[C@@H](CC(C)C)[C@@H](O)CC(=O)N[C@@H](C)C(=O)N[C@@H](CC(C)C)[C@@H](O)CC(=O)O)C(C)C)C(C)C` [pepstatin] (Isovaleryl-VV[Sta]A[Sta]-OH), in the assay with hog renin, the blood pressure entry is “reduce blood pressure in vivo”. The “inhibitor of cathepsin D” value in the assay on cathepsin D is “inhibitor”. Also, the inhibitor of pepsin entry in the assay with pepsin is reported as “inhibitor”. Also, the inhibitor of renin entry with renin is “inhibitor”.
